In PubChem BioAssay AID1919013 (Molecular Pharmacology Branch, DTP, NCI, 2023):
Several values for one entry are separate records, joined by “and”; a condition that tells them apart may be missing. Identical values can stand only once. Each block holds one compound with its values, some of them ahead of it.

Tested on: LG0703-F498-PDC complex spheroid growth
Assay: Anticancer human tumor LG0703-F498-PDC patient-derived lung adenocarcinoma cell line growth inhibition [AhR]
Conditions: for viability, T/C: stronger effect = lower value
Procedure, shortened: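 Agents were dosed in half-log steps down from roughly clinical Cmax, or from 10 microM where Cmax was unknown, alone and with AhR antagonists. Read-out: percent test/control growth of tumor spheroids containing HUVEC and MSC stromal cells.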

[1] = curve of first compound, second compound 0.1 µM
[2] = curve of first compound, second compound 0.316 µM
[3] = curve of first compound, second compound 1 µM
[4] = curve of first compound, second compound 3.16 µM
[5] = curve of first compound, second compound 10 µM
[6] = second compound 0.1 µM, first compound 0.0316 µM
[7] = second compound 0.1 µM, first compound 0.1 µM
[8] = second compound 0.1 µM, first compound 0.316 µM
[9] = second compound 0.1 µM, first compound 1 µM
[10] = second compound 0.316 µM, first compound 0.0316 µM
[11] = second compound 0.316 µM, first compound 0.1 µM
[12] = second compound 0.316 µM, first compound 0.316 µM
[13] = second compound 0.316 µM, first compound 1 µM
[14] = second compound 1 µM, first compound 0.0316 µM
[15] = second compound 1 µM, first compound 0.1 µM
[16] = second compound 1 µM, first compound 0.316 µM
[17] = second compound 1 µM, first compound 1 µM
[18] = second compound 3.16 µM, first compound 0.0316 µM
[19] = second compound 3.16 µM, first compound 0.1 µM
[20] = second compound 3.16 µM, first compound 0.316 µM
[21] = second compound 3.16 µM, first compound 1 µM
[22] = second compound 10 µM, first compound 0.0316 µM
[23] = second compound 10 µM, first compound 0.1 µM
[24] = second compound 10 µM, first compound 0.316 µM
[25] = second compound 10 µM, first compound 1 µM
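Also: luminescence taken as a proxy for viable cell amount.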
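For viability, T/C in this document: percent of DMSO vehicle control where 100% means growth equal to vehicle.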

SMILES: CC(C)c1c(-c2ccccc2)nc2c(C#N)c[nH]n2c1=O + Cc1ccccc1N=Nc1ccc(NC(=O)c2ccnn2C)c(C)c1
IC50 [1]: > 10000 nM
IC50 [2]: > 10000 nM
IC50 [3]: > 10000 nM
IC50 [4]: > 10000 nM
IC50 [5]: > 10000 nM
viability, T/C [6]: 95.3%
viability, T/C [7]: 88.1%
viability, T/C [8]: 94.9%
viability, T/C [9]: 98.5%
viability, T/C (second compound 0.1 µM, first compound 3.16 µM): 112%
viability, T/C (second compound 0.1 µM, first compound 10 µM): 102%
viability, T/C [10]: 97.4%
viability, T/C [11]: 85.6%
viability, T/C [12]: 85.5%
viability, T/C [13]: 78.8%
viability, T/C (second compound 0.316 µM, first compound 3.16 µM): 95.9%
viability, T/C (second compound 0.316 µM, first compound 10 µM): 92.1%
viability, T/C [14]: 88.1%
viability, T/C [15]: 90.4%
viability, T/C [16]: 94.7%
viability, T/C [17]: 89.5%
viability, T/C (second compound 1 µM, first compound 3.16 µM): 87.6%
viability, T/C (second compound 1 µM, first compound 10 µM): 84.1%
viability, T/C [18]: 78%
viability, T/C [19]: 79%
viability, T/C [20]: 84.5%
viability, T/C [21]: 77.6%
viability, T/C (second compound 3.16 µM, first compound 3.16 µM): 81.5%
viability, T/C (second compound 3.16 µM, first compound 10 µM): 86.8%
viability, T/C [22]: 86.3%
viability, T/C [23]: 75.6%
viability, T/C [24]: 67.9%
viability, T/C [25]: 82.8%
viability, T/C (second compound 10 µM, first compound 3.16 µM): 81.7%
viability, T/C (second compound 10 µM, first compound 10 µM): 79.3%

SMILES: O=C(C=Cc1cccc(S(=O)(=O)Nc2ccccc2)c1)NO
viability, T/C (compound 0.0316 µM): 101% and 111% and 110%
viability, T/C (compound 0.1 µM): 111% and 119% and 116%
viability, T/C (compound 0.316 µM): 94% and 91.7% and 82.7%
viability, T/C (compound 1 µM): 48.1% and 42% and 45.8%
viability, T/C (compound 3.16 µM): 12% and 11.7% and 7.36%
viability, T/C (compound 10 µM): 1.95% and 2.42% and 1.39%
IC50 (curve of compound): 966 nM and 835 nM and 827 nM

More lines, main results first:

IC50 (curve of compound): 1160 nM and 920 nM and 523 nM
SMILES: Nc1ccccc1NC(=O)c1ccc(CNC(=O)OCc2cccnc2)cc1
viability, T/C (compound 0.0316 µM): 90.9% and 98.6% and 92.2%
viability, T/C (compound 0.1 µM): 105% (2×) and 83.9%
viability, T/C (compound 0.316 µM): 94.5% and 81.1% and 70.5%
viability, T/C (compound 1 µM): 55.2% and 47.8% and 24.5%
viability, T/C (compound 3.16 µM): 10.7% and 14.8% and 2.77%
viability, T/C (compound 10 µM): 0.41% and 1.49% and 0.42%

IC50 [1]: > 1000 nM
IC50 [2]: > 1000 nM
IC50 [3]: > 1000 nM
IC50 [4]: > 1000 nM
IC50 [5]: > 1000 nM
SMILES: Nc1ncn(C2CC(O)C(CO)O2)c(=O)n1 (stereo unspecified) + Cc1ccccc1N=Nc1ccc(NC(=O)c2ccnn2C)c(C)c1
viability, T/C (second compound 0.1 µM, first compound 0.00316 µM): 96.5%
viability, T/C (second compound 0.1 µM, first compound 0.01 µM): 99.1%
viability, T/C [6]: 94.8%
viability, T/C [7]: 85%
viability, T/C [8]: 83.2%
viability, T/C [9]: 83.9%
viability, T/C (second compound 0.316 µM, first compound 0.00316 µM): 97%
viability, T/C (second compound 0.316 µM, first compound 0.01 µM): 93.6%
viability, T/C [10]: 92.1%
viability, T/C [11]: 90.1%
viability, T/C [12]: 76.5%
viability, T/C [13]: 87%
viability, T/C (second compound 1 µM, first compound 0.00316 µM): 86.2%
viability, T/C (second compound 1 µM, first compound 0.01 µM): 101%
viability, T/C [14]: 88%
viability, T/C [15]: 89.7%
viability, T/C [16]: 75.4%
viability, T/C [17]: 92.6%
viability, T/C (second compound 3.16 µM, first compound 0.00316 µM): 95.2%
viability, T/C (second compound 3.16 µM, first compound 0.01 µM): 97.6%
viability, T/C [18]: 87%
viability, T/C [19]: 75%
viability, T/C [20]: 79.4%
viability, T/C [21]: 65.5%
viability, T/C (second compound 10 µM, first compound 0.00316 µM): 85.9%
viability, T/C (second compound 10 µM, first compound 0.01 µM): 90.9%
viability, T/C [22]: 86.6%
viability, T/C [23]: 72.4%
viability, T/C [24]: 74.2%
viability, T/C [25]: 68.3%

IC50 (curve of compound): 597 nM and 726 nM and 723 nM
SMILES: CC1COCCN1c1cc(-c2ccnn2C)c2ccnc(-c3ccn[nH]3)c2n1 (stereo unspecified)
viability, T/C (compound 0.00316 µM): 97.6% and 98.2% and 105%
viability, T/C (compound 0.01 µM): 102% and 105% and 98.7%
viability, T/C (compound 0.0316 µM): 106% and 82.9% and 90.9%
viability, T/C (compound 0.1 µM): 86.3% and 83.7% and 85%
viability, T/C (compound 0.316 µM): 62.1% and 66.7% and 69.9%
viability, T/C (compound 1 µM): 40.7% and 43.3% and 42%
